Measurements published in patent US20150111864A1, “CRYSTALLINE FORM OF A BETA-LACTAMASE INHIBITOR” (Cubist Pharmaceuticals, Inc., priority 2013, published 2015).

How the values were obtained:
[1] = system: Panel of Isogenic and Clinical Strains Expressing β-Lactamases; assay: Standard BLI Potentiation MIC Assay in Combination with Ceftolozane, whole panel; format: cell-based; conditions: panel of 24 strains; no BLI
Description: (§1) The experimental protocol was performed according to Clinical and Laboratory Standards Institute (CLSI) guidelines with modifications as described below (CLSI guidelines can be derived from the CLSI document M07-A9 published in January 2012: “Methods for Dilution Antimicrobial Susceptibility Tests for Bacteria That Grow Aerobically; Approved Standard-Ninth Edition”).
(§2) Frozen glycerol stocks of laboratory engineered, isogenic E. coli strains, which contain cloned β-lactamase expressing plasmids were used to streak for isolated colonies on rich, selective LB agar supplemented with 25 μg/mL tetracycline to maintain the plasmid. All strains were incubated at 37° C. for 18-24 hrs.
(§3) On the day of testing, primary cultures were started by scraping off 5-10 colonies from the TSAB plates containing clinical strains or the tetracycline supplemented LB plates containing engineered strains. The clinical strain material was suspended in ˜5 mL of cation adjusted Mueller Hinton Broth (CAMHB) in 14 mL culture tubes. The engineered strain material was suspended in CAMHB (supplemented with 25 μg/mL tetracycline) in 14 mL culture tubes. All strains were incubated at 37° C. with aeration (200 rpm) for ˜2 hrs until the optical density at 600 nm (OD600) was ≧0.1.
(§4) The two compound components of the assay were each diluted in CAMHB and added to the 96-well broth microdilution assay plates. 50 μL of the β-lactam was added to each well of the assay plate in 2-fold dilutions with final concentrations ranging from 128 to 0.13 μg/mL. 25 μL of the BLI compound was added to all wells in the broth microdilution plates at a final concentration of 4 μg/mL. Inoculum cultures were prepared by standardizing the primary cultures to OD600=0.1 and then adding 20 μL of the adjusted primary culture per 1 mL CAMHB for clinical strains or CAMHB (supplemented with tetracycline at 100 μg/mL) for engineered strains, so that the final inoculum density was ˜10^5 colony forming units per milliliter. Diluted inoculum cultures were used to inoculate 25 μL per well in 96-well broth microdilution assay plates. The final volume of each well was 100 μL and contained a β-lactam at different concentrations, a BLIcompound at 4 μg/mL concentration, the bacterial culture at an OD600 of approximately 0.001 and when necessary tetracycline at 25 μg/mL.
(§5) Plates were incubated for 18-20 hours at 37° C. with aeration (200 rpm). Following incubation, growth was confirmed visually placing plates over a viewing apparatus (stand with a mirror underneath) and then OD600 was measured using a SpectraMax 340PC384 plate reader (Molecular Devices, Sunnyvale, Calif.). Growth was defined as turbidity that could be detected with the naked eye or achieving minimum OD600 of 0.1. […]

[2] = system: Pae.2885 (AmpC, clinical); assay: Standard BLI Potentiation MIC Assay in Combination with Ceftolozane; format: cell-based, Pseudomonas aeruginosa; conditions: Pseudomonas aeruginosa, read-out: MIC of Ceftolozane, No BLI
Description: as §1, §2, §3, §4
(§6) Plates were incubated for 18-20 hours at 37° C. with aeration (200 rpm). Following incubation, growth was confirmed visually placing plates over a viewing apparatus (stand with a mirror underneath) and then OD600 was measured using a SpectraMax 340PC384 plate reader (Molecular Devices, Sunnyvale, Calif.). Growth was defined as turbidity that could be detected with the naked eye or achieving minimum OD600 of 0.1. MIC values were defined as the lowest concentration producing no visible turbidity.

[3] = system: Pae.2863 (AmpC de-repress, clinical); assay: as above; format: cell-based, Pseudomonas aeruginosa; conditions: Pseudomonas aeruginosa, read-out: MIC of Ceftolozane, No BLI
Description: as §1, §2, §3, §4, §6

[4] = system: Pae.2757 (AmpC over-expn, clinical); assay: as above; format: cell-based, Pseudomonas aeruginosa; conditions: Pseudomonas aeruginosa, read-out: MIC of Ceftolozane, No BLI
Description: as §1, §2, §3, §4, §6

Ecl.569 (AmpC, clinical) = assay: as above; format: cell-based, Enterobacter spp; conditions: Enterobacter, read-out: MIC of Ceftolozane, No BLI
Description: as §1, §2
(§7) On the day of testing, primary cultures were started by scraping off 5-10 colonies from the TSAB plates containing clinical strains or the tetracycline supplemented LB plates containing engineered strains. […]
as §5

[5] = system: Eco.2843 (DHA-1, isogenic); assay: as above; format: cell-based, Escherichia coli; conditions: Escherichia coli, read-out: MIC of Ceftolozane, No BLI
Description: as §1, §2, §3, §4, §6

[6] = system: Eco.2845 (OXA-15, isogenic); assay: as above; format: cell-based, Escherichia coli; conditions: Escherichia coli, read-out: MIC of Ceftolozane, No BLI
Description: as §1, §2, §3, §4, §6

[7] = system: Eco.2491 (CMY-2, clinical); assay: as above; format: cell-based, Escherichia coli; conditions: Escherichia coli, read-out: MIC of Ceftolozane, No BLI
Description: as §1, §2, §3, §4, §6

Eco.2711 (KPC, clinical) = assay: as above; format: cell-based; conditions: Escherichia coli, read-out: MIC of Ceftolozane, No BLI
Description: as §1, §2, §3
as §4, with “plates.” for “plates. The final volume of each well was 100 μL and contained a β-lactam at different concentrations, a BLIcompound at 4 μg/mL concentration, the bacterial culture at an OD600 of approximately 0.001 and when necessary tetracycline at 25 μg/mL.”

[8] = system: Pae.2808 (KPC-2, clinical); assay: as above; format: cell-based; conditions: Pseudomonas aeruginosa, read-out: MIC of Ceftolozane, No BLI
Description: as §1, §2, §3
as §4, with “plates.” for “plates. The final volume of each well was 100 μL and contained a β-lactam at different concentrations, a BLIcompound at 4 μg/mL concentration, the bacterial culture at an OD600 of approximately 0.001 and when necessary tetracycline at 25 μg/mL.”

[9] = system: Kpn.2917 (KPC-2, SHV+, clinical); assay: as above; format: cell-based; conditions: Klebsiella pneumoniae, read-out: MIC of Ceftolozane, No BLI
Description: as §1, §2, §3
as §4, with “plates.” for “plates. The final volume of each well was 100 μL and contained a β-lactam at different concentrations, a BLIcompound at 4 μg/mL concentration, the bacterial culture at an OD600 of approximately 0.001 and when necessary tetracycline at 25 μg/mL.”

[10] = system: Kpn.571 (TEM-26, clinical); assay: as above; format: cell-based; conditions: Klebsiella pneumoniae, read-out: MIC of Ceftolozane, No BLI
Description: as §1, §2, §3
as §4, with “plates.” for “plates. The final volume of each well was 100 μL and contained a β-lactam at different concentrations, a BLIcompound at 4 μg/mL concentration, the bacterial culture at an OD600 of approximately 0.001 and when necessary tetracycline at 25 μg/mL.”

[11] = system: Kpn.2909 (KPC-3, SHV+, TEM+, clinical); assay: as above; format: cell-based; conditions: Klebsiella pneumoniae, read-out: MIC of Ceftolozane, No BLI
Description: as §1, §2, §3
as §4, with “plates.” for “plates. The final volume of each well was 100 μL and contained a β-lactam at different concentrations, a BLIcompound at 4 μg/mL concentration, the bacterial culture at an OD600 of approximately 0.001 and when necessary tetracycline at 25 μg/mL.”

[12] = system: Eco.2840 (KPC-4, isogenic); assay: as above; format: cell-based; conditions: Escherichia coli, read-out: MIC of Ceftolozane, No BLI
Description: as §1, §2, §3
as §4, with “plates.” for “plates. The final volume of each well was 100 μL and contained a β-lactam at different concentrations, a BLIcompound at 4 μg/mL concentration, the bacterial culture at an OD600 of approximately 0.001 and when necessary tetracycline at 25 μg/mL.”

[13] = system: Kpn.2490 (KPC-3, SHV+, TEM+, clinical); assay: as above; format: cell-based; conditions: Klebsiella pneumoniae, read-out: MIC of Ceftolozane, No BLI
Description: as §1, §2, §3
as §4, with “plates.” for “plates. The final volume of each well was 100 μL and contained a β-lactam at different concentrations, a BLIcompound at 4 μg/mL concentration, the bacterial culture at an OD600 of approximately 0.001 and when necessary tetracycline at 25 μg/mL.”

[14] = system: Kpn.2913 (KPC-2, SHV+, clinical); assay: as above; format: cell-based; conditions: Klebsiella pneumoniae, read-out: MIC of Ceftolozane, No BLI
Description: as §1, §2, §3
as §4, with “plates.” for “plates. The final volume of each well was 100 μL and contained a β-lactam at different concentrations, a BLIcompound at 4 μg/mL concentration, the bacterial culture at an OD600 of approximately 0.001 and when necessary tetracycline at 25 μg/mL.”

[15] = system: Eco.2781 (KPC-2, TEM+, clinical); assay: as above; format: cell-based; conditions: Escherichia coli, read-out: MIC of Ceftolozane, No BLI
Description: as §1, §2, §3
as §4, with “plates.” for “plates. The final volume of each well was 100 μL and contained a β-lactam at different concentrations, a BLIcompound at 4 μg/mL concentration, the bacterial culture at an OD600 of approximately 0.001 and when necessary tetracycline at 25 μg/mL.”

[16] = system: Kpn.2926 (CTX-M-15, OXA-48, clinical); assay: as above; format: cell-based; conditions: Klebsiella pneumoniae, read-out: MIC of Ceftolozane, No BLI
Description: as §1, §2, §3
as §4, with “plates.” for “plates. The final volume of each well was 100 μL and contained a β-lactam at different concentrations, a BLIcompound at 4 μg/mL concentration, the bacterial culture at an OD600 of approximately 0.001 and when necessary tetracycline at 25 μg/mL.”

[17] = system: Kpn.2914 (KPC-2, SHV+, clinical); assay: as above; format: cell-based; conditions: Klebsiella pneumoniae, read-out: MIC of Ceftolozane, No BLI
Description: as §1, §2, §3
as §4, with “plates.” for “plates. The final volume of each well was 100 μL and contained a β-lactam at different concentrations, a BLIcompound at 4 μg/mL concentration, the bacterial culture at an OD600 of approximately 0.001 and when necessary tetracycline at 25 μg/mL.”

[18] = system: Kpn.2783 (CTX-M-15, SHV+, TEM+, clinical); assay: as above; format: cell-based; conditions: Klebsiella pneumoniae, read-out: MIC of Ceftolozane, No BLI
Description: as §1, §2, §3
as §4, with “plates.” for “plates. The final volume of each well was 100 μL and contained a β-lactam at different concentrations, a BLIcompound at 4 μg/mL concentration, the bacterial culture at an OD600 of approximately 0.001 and when necessary tetracycline at 25 μg/mL.”

[19] = system: Kpn.2478 (KPC-3, TEM+, clinical); assay: as above; format: cell-based; conditions: Klebsiella pneumoniae, read-out: MIC of Ceftolozane, No BLI
Description: as §1, §2, §3
as §4, with “plates.” for “plates. The final volume of each well was 100 μL and contained a β-lactam at different concentrations, a BLIcompound at 4 μg/mL concentration, the bacterial culture at an OD600 of approximately 0.001 and when necessary tetracycline at 25 μg/mL.”

[20] = system: Eco.2806 (KPC-2, isogenic); assay: as above; format: cell-based; conditions: Escherichia coli, read-out: MIC of Ceftolozane, No BLI
Description: as §1, §2, §3
as §4, with “plates.” for “plates. The final volume of each well was 100 μL and contained a β-lactam at different concentrations, a BLIcompound at 4 μg/mL concentration, the bacterial culture at an OD600 of approximately 0.001 and when necessary tetracycline at 25 μg/mL.”

[21] = system: Kpn.2918 (KPC-3, SHV+, TEM+, clinical); assay: as above; format: cell-based; conditions: Klebsiella pneumoniae, read-out: MIC of Ceftolozane, No BLI
Description: as §1, §2, §3
as §4, with “plates.” for “plates. The final volume of each well was 100 μL and contained a β-lactam at different concentrations, a BLIcompound at 4 μg/mL concentration, the bacterial culture at an OD600 of approximately 0.001 and when necessary tetracycline at 25 μg/mL.”

Cfr.568 (AmpC, clinical) = assay: as above; format: cell-based, Citrobacter spp; conditions: Citrobacter, read-out: MIC of Ceftolozane, No BLI
Description: as §1, §2, §7, §5

[22] = system: Eco.2902 (Aba-ADC-33, isogenic); assay: as above; format: cell-based; conditions: Escherichia coli, read-out: MIC of Ceftolozane, No BLI
Description: as §1, §2, §7, §5

Cn1c(N)c(NC(=O)NCCN)c[n+]1CC1=C(C(=O)O)N2C(=O)[C@@H](NC(=O)/C(=N\OC(C)(C)C(=O)[O-])c3nsc(N)n3)[C@H]2SC1 [Ceftolozane]
MIC50 [1]: > 64 µg/mL | MIC90 [1]: > 64 µg/mL | MIC [2]: 1 to 2 µg/mL | MIC [3]: 4 to 8 µg/mL | MIC [4]: 4 to 8 µg/mL | MIC (Ecl.569 (AmpC, clinical)): > 64 µg/mL | MIC [5]: > 64 µg/mL | MIC [6]: > 64 µg/mL | MIC [7]: 16 to 32 µg/mL | MIC (Eco.2711 (KPC, clinical)): 16 to 32 µg/mL | MIC [8]: > 64 µg/mL | MIC [9]: 16 to 32 µg/mL | MIC [10]: 16 to 32 µg/mL | MIC [11]: > 64 µg/mL | MIC [12]: > 64 µg/mL | MIC [13]: > 64 µg/mL | MIC [14]: 16 to 32 µg/mL | MIC [15]: 4 to 8 µg/mL | MIC [16]: > 64 µg/mL | MIC [17]: 16 to 32 µg/mL | MIC [18]: > 64 µg/mL | MIC [19]: > 64 µg/mL | MIC [20]: > 64 µg/mL | MIC [21]: > 64 µg/mL | MIC (Cfr.568 (AmpC, clinical)): > 64 µg/mL | MIC [22]: > 64 µg/mL
